In patent US9346746B2, “R(+)-N-formyl-propargyl-aminoindan” (Teva Pharmaceutical Industries, Ltd., priority 2011, dated 2016):
Read-outs that look alike come from different tables or passages of the source.

Tests used:
[1] = for R(+)-N-formyl-PAI, % of Rasagiline: 90° C., air, 1 mg/ml
Procedure: An additional series of degradation experiments was performed at 90° C. in order to achieve even higher degradation of Rasagiline in aqueous solutions.
For this series the treatment time was 1 and 2 weeks, and phosphate-citrate buffer (pH=2.6) and phosphate buffer (pH=8.0) were used.
The solutions were exposed to heat in an oven under an air atmosphere in amber glass vials closed with Teflon stoppers and covered with aluminum foil for protection from light.
The samples were introduced into an oven pre-heated to 90° C. and held at this temperature for 7 or 14 days. After completion of the treatment the samples were refrigerated at 2-8° C. and analyzed.

[2] = melt phase, Air
Procedure: Samples intended to degrade under an inert atmosphere were flushed with nitrogen for 5 minutes before closing with a stopper.
The samples were introduced into a pre-heated oven and held at a constant temperature of 78 and 90° C. for 24, 72 or 137 hrs. After completion of the treatment the samples were refrigerated and analyzed.

[3] = RH=100%, room temperature, 7 days
[4] = 1 mg/ml, air, Ethanol, 78 °C, 168 hrs
Procedure: The solutions were exposed to heating in oven under air atmosphere in amber glass vials closed with Teflon stoppers and covered with aluminum foil for protection from light. After completion of the treatment the samples were refrigerated at 2-8° C. and analyzed later using HPLC.

[5] = in vivo; cited from earlier work
[6] = room temperature, initial peroxide 3%
Procedure: Then peroxide and water were added; complete dissolution of solid was achieved by shaking.
After holding at room temperature for 10 minutes to 20 hrs (oxidation time), the solutions were diluted with mobile phase and analyzed by HPLC.

R(+)-N-formyl-PAI, % of Rasagiline ([1]; Acetate buffer pH = 4.1, 1 week): 0.05 % of Rasagiline
R(+)-N-formyl-PAI, % of Rasagiline ([1]; Phosphate buffer pH = 6.0, 1 week): 0.07 % of Rasagiline
R(+)-N-formyl-PAI, % of Rasagiline ([1]; Phosphate buffer pH = 6.0, 2 weeks): 0.16 % of Rasagiline
R(+)-N-formyl-PAI, % of Rasagiline ([1]; Phosphate buffer pH = 8.0, 1 week): 0.22 % of Rasagiline
R(+)-N-formyl-PAI, % of Rasagiline ([1]; Phosphate buffer pH = 8.0, 2 weeks): 0.19 % of Rasagiline
R(+)-N-formyl-PAI, % of Rasagiline ([1]; Phosphate-citrate buffer 3.6, 1 week): 0.13 % of Rasagiline
R(+)-N-formyl-PAI, % of Rasagiline ([1]; Phosphate-citrate buffer 3.6, 2 weeks): 0.11 % of Rasagiline
R(+)-N-formyl-PAI, % of Rasagiline ([1]; Phosphate-citrate buffer pH = 2.6, 1 week): 0.17 % of Rasagiline
R(+)-N-formyl-PAI, % of Rasagiline ([1]; Phosphate-citrate buffer pH = 2.6, 2 weeks): 0.26 % of Rasagiline
R(+)-N-formyl-PAI found in the solutions ([1]; aqueous solutions at 90° C., summary statement): above 0.1 % area of Rasagiline
R(+)-N-formyl-PAI, % of Rasagiline ([2]; 78 deg. C., 24 hrs): 0.14 % of Rasagiline
R(+)-N-formyl-PAI, % of Rasagiline ([2]; 78 deg. C., 72 hrs): 0.10 % of Rasagiline
R(+)-N-formyl-PAI, % of Rasagiline ([2]; 90 deg. C., 24 hrs): 0.08 % of Rasagiline
R(+)-N-formyl-PAI, % of Rasagiline ([2]; 90 deg. C., 72 hrs): 0.07 % of Rasagiline
R(+)-N-formyl-PAI, % of Rasagiline ([2]; 90 deg. C., 137 hrs): 0.07 % of Rasagiline
R(+)-N-formyl-PAI after humidity stress [3]: not detected
R(+)-N-formyl-PAI, % of Rasagiline [4]: <0.04 % of Rasagiline
R(+)-N-formyl-PAI, % of Rasagiline ([6]; oxidation time 5:00 hr:min): 0.17 % of Rasagiline
R(+)-N-formyl-PAI, % of Rasagiline ([6]; oxidation time 20:00 hr:min): 0.23 % of Rasagiline
SMILES: C#CCN[C@@H]1CCc2ccccc21 [Rasagiline base, R(+)-N-propargyl-1-aminoindan]
absolute bioavailability [5]: about 36%
